{
  "source": "paper PMC12525769",
  "about": "“Structure and quenching of a bundle-shaped phycobilisome” (Science Advances, 2025)",
  "test_in_all_cases": "cryo-EM structure of phycobilisome",
  "type_in_all_cases": "binding",
  "key": {"[1]": {"target": "T1, ApcE (Gloeobacter violaceus, UniProt Q7NL81)", "T1 construct": "native, within isolated GraFix cross-linked phycobilisome; bilin in N-terminal alpha-like domain, in third AP trimer of basal cylinders", "T1 sequence (Q7NL81 1-1155)": "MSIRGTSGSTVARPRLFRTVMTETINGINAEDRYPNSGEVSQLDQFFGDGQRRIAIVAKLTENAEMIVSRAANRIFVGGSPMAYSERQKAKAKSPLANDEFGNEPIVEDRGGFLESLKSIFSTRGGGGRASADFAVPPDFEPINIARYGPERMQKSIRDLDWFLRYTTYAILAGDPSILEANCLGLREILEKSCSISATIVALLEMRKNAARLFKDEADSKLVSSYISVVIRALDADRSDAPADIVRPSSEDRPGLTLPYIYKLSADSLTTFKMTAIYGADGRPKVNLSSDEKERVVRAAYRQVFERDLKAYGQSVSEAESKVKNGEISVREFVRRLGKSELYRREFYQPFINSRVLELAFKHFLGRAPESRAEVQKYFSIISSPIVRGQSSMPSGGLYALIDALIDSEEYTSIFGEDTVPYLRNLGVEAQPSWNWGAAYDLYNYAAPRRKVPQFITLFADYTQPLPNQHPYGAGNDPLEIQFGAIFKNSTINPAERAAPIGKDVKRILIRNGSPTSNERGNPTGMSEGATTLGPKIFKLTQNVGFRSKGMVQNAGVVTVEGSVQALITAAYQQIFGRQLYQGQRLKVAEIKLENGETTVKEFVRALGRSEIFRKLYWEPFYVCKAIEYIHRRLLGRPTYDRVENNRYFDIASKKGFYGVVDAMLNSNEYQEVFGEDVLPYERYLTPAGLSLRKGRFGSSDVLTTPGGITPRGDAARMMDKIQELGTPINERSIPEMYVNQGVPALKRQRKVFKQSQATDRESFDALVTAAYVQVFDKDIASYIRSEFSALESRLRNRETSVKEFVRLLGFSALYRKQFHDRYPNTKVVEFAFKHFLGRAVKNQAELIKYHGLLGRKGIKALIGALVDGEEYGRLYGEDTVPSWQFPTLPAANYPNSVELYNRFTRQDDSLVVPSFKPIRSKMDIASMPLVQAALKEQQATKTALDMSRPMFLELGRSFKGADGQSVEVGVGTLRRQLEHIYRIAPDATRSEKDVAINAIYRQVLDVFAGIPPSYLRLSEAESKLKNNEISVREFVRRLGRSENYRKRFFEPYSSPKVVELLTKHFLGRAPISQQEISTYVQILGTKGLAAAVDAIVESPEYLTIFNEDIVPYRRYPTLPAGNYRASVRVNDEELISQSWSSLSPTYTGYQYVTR", "settings": "covalent; terminal emitter, D ring stacks on Trp162; ring conformation not resolved without restraints"}, "[2]": {"target": "T2, phycocyanin (PC) (Gloeobacter violaceus, UniProt Q7M7C7+Q7M7F7)", "T2 construct": "gene cpcA; native, (αβ)6 hexamers of rods and Rx in isolated GraFix cross-linked phycobilisome", "T2 sequence (Q7M7F7 1-162)": "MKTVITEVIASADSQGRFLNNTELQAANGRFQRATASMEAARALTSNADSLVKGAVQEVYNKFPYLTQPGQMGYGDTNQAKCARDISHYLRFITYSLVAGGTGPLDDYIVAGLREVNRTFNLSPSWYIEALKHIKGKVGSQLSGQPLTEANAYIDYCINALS", "T2 sequence (Q7M7C7 1-172)": "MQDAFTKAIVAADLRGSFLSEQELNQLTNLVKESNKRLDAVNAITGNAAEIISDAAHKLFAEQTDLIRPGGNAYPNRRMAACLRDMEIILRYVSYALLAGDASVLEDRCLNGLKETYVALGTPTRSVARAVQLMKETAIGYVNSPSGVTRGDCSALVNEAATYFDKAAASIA", "settings": "covalent; one bilin on alpha, two on beta"}, "[3]": {"target": "T3, allophycocyanin (AP) (Gloeobacter violaceus, UniProt Q7NL79+Q7NL80)", "T3 construct": "gene apcA; native, (αβ)3 trimers of the pentacylindrical core in isolated GraFix cross-linked phycobilisome", "T3 sequence (Q7NL80 1-161)": "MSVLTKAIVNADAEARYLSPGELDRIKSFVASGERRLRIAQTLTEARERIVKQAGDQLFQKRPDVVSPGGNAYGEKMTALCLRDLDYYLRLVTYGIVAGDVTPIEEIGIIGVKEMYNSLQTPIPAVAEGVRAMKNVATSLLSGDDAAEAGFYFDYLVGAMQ", "T3 sequence (Q7NL79 1-161)": "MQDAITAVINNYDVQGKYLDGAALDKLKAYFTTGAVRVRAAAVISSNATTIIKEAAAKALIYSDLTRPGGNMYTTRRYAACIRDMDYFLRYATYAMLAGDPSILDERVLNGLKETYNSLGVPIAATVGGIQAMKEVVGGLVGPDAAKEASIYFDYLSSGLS", "settings": "covalent; one bilin on each alpha and beta subunit"}},
  "data": [
    {"compound": "CC=C1C(=Cc2[nH]c(C=C3N=C(C=C4NC(=O)C(CC)=C4C)C(C)=C3CCC(=O)O)c(CCC(=O)O)c2C)NC(=O)C1C", "note": "(stereo not drawn) [phycocyanobilin]", "values": [
      {"measurement": "cryo-EM structure of phycobilisome", "setting": "[1]", "value": "resolved in cryo-EM density map, including the terminal emitting bilin in ApcE"},
      {"measurement": "cryo-EM structure of phycobilisome", "setting": "[2]", "value": "PCB conformations within PC hexamers in rods and AP hexamers in the core were resolved"},
      {"measurement": "cryo-EM structure of phycobilisome", "setting": "[3]", "value": "PCB conformations within PC hexamers in rods and AP hexamers in the core were resolved"}
    ]}
  ]
}
